Data reported in patent US20250312352A1, “GLP-1R MODULATING COMPOUNDS” (Gilead Sciences, Inc., priority 2021, published 2025).

Target: T1, GLP-1R (Homo sapiens, UniProt P43220)
T1 construct: host or cells: CHO cells
Assay: GLP-1R activation cAMP assay (Assay 1 or Assay 2)
Assay type: cell-based
Details: cAMP increase in CHO cells stably expressing GLP-1R; compounds run on one of the two cAMP assays
Outline: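 EC50 values come from a sigmoidal fit of HTRF-detected cAMP rise versus log agonist concentration. GLP-1R-expressing CHO cells, equilibrated 1 h at 37 °C in HBSS with HEPES and BSA, received a 10-point compound dose series for 30 min before detection.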

T1 sequence (P43220 24-463): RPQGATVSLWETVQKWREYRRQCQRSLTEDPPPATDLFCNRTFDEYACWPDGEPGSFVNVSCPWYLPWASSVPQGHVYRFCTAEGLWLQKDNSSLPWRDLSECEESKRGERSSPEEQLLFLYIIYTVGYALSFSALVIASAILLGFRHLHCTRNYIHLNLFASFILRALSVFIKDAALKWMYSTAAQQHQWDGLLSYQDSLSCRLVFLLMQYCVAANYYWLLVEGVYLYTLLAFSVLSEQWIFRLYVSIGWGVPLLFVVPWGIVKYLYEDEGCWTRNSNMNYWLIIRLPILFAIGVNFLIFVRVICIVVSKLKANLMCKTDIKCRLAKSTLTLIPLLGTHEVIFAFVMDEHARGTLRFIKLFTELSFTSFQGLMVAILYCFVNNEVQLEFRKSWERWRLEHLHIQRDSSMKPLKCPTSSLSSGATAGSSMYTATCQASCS

## CNC(=O)c1cc(Cl)c(COc2cccc(-c3ccc(Cc4nc5ccc(C(=O)O)cc5n4CC4(CF)CC4)c(F)c3)n2)cn1 [Example 402, 2-(4-(6-((4-chloro-6-(methylcarbamoyl)pyridin-3-yl)methoxy)pyridin-2-yl)-2-fluorobenzyl)-1-((1-(fluoromethyl)cyclopropyl)methyl)-1H-benzo[d]imidazole-6-carboxylic acid]
  EC50: 0.208 nM

## O=C(O)c1ccc2nc(Cc3cc(F)c(-c4cccc(OCc5cn6cc(Cl)ccc6n5)n4)cc3F)n(C[C@@H]3CCO3)c2c1 [Example 32, (S)-2-(4-(6-((6-chloroimidazo[1,2-a]pyridin-2-yl)methoxy)pyridin-2-yl)-2,5-difluorobenzyl)-1-(oxetan-2-ylmethyl)-1H-benzo[d]imidazole-6-carboxylic acid]
  EC50: 0.79 nM

## CCc1nnc(COc2cccc(-c3cc(F)c(Cc4nc5ccc(C(=O)O)cc5n4C[C@@H]4CCO4)cc3F)n2)s1 [Example 299, (S)-2-(4-(6-((5-ethyl-1,3,4-thiadiazol-2-yl)methoxy)pyridin-2-yl)-2,5-difluorobenzyl)-1-(oxetan-2-ylmethyl)-1H-benzo[d]imidazole-6-carboxylic acid]
  EC50: 2.63 nM

## N#Cc1csc(COc2cccc(-c3cc(F)c(Cc4nc5ccc(C(=O)O)cc5n4C[C@@H]4CCO4)cc3F)n2)c1 [Example 130, (S)-2-(4-(6-((4-cyanothiophen-2-yl)methoxy)pyridin-2-yl)-2,5-difluorobenzyl)-1-(oxetan-2-ylmethyl)-1H-benzo[d]imidazole-6-carboxylic acid]
  EC50: 0.57 nM

## O=C(O)c1ccc2nc(Cc3cc(F)c(-c4cccc(OCc5ccn(C(F)F)n5)n4)cc3F)n(C[C@@H]3CCO3)c2c1 [Example 9, (S)-2-(4-(6-((1-(difluoromethyl)-1H-pyrazol-3-yl)methoxy)pyridin-2-yl)-2,5-difluorobenzyl)-1-(oxetan-2-ylmethyl)-1H-benzo[d]imidazole-6-carboxylic acid]
  EC50: 0.95 nM

## N#Cc1cnc(COc2cccc(-c3cc(F)c(Cc4nc5ccc(C(=O)O)cc5n4C[C@@H]4CCO4)cc3F)n2)s1 [Example 2, (S)-2-(4-(6-((5-cyanothiazol-2-yl)methoxy)pyridin-2-yl)-2,5-difluorobenzyl)-1-(oxetan-2-ylmethyl)-1H-benzo[d]imidazole-6-carboxylic acid]
  EC50: 0.11 nM

## NC(=O)c1cc(COc2cccc(-c3cc(F)c(Cc4nc5ccc(C(=O)O)cc5n4C[C@@H]4CCO4)cc3F)n2)cs1 [Example 129, (S)-2-(4-(6-((5-carbamoylthiophen-3-yl)methoxy)pyridin-2-yl)-2,5-difluorobenzyl)-1-(oxetan-2-ylmethyl)-1H-benzo[d]imidazole-6-carboxylic acid]
  EC50: 3.17 nM

## COc1nnc(COc2cccc(-c3cc(F)c(Cc4nc5ccc(C(=O)O)cc5n4CC4(CF)CC4)cc3F)n2)s1 [Example 272, 2-(2,5-difluoro-4-(6-((5-methoxy-1,3,4-thiadiazol-2-yl)methoxy)pyridin-2-yl)benzyl)-1-((1-(fluoromethyl)cyclopropyl)methyl)-1H-benzo[d]imidazole-6-carboxylic acid]
  EC50: 1.9 nM

## Cn1cc(NC(=O)c2cc(Cl)c(COc3cccc(-c4cc(F)c(Cc5nc6ccc(C(=O)O)cc6n5C[C@@H]5CCO5)cc4F)n3)cn2)cn1 [Example 194, (S)-2-(4-(6-((4-chloro-6-((1-methyl-1H-pyrazol-4-yl)carbamoyl)pyridin-3-yl)methoxy)pyridin-2-yl)-2,5-difluorobenzyl)-1-(oxetan-2-ylmethyl)-1H-benzo[d]imidazole-6-carboxylic acid]
  EC50: 0.17 nM

## CNC(=O)c1cc(F)c(COc2cccc(-c3cc(F)c(Cc4nc5ccc(C(=O)O)cc5n4C[C@@H]4CCO4)cc3F)n2)cn1 [Example 243, 2-[[2,5-difluoro-4-[6-[[4-fluoro-6-(methylcarbamoyl)-3-pyridyl]methoxy]-2-pyridyl]phenyl]methyl]-3-[[(2S)-oxetan-2-yl]methyl]benzimidazole-5-carboxylic acid]
  EC50: 0.17 nM

## CC1(C#Cc2cnc(COc3cccc(-c4cc(F)c(Cc5nc6ccc(C(=O)O)cc6n5C[C@@H]5CCO5)cc4F)n3)s2)COC1 [Example 115, (S)-2-(2,5-difluoro-4-(6-((5-((3-methyloxetan-3-yl)ethynyl)thiazol-2-yl)methoxy)pyridin-2-yl)benzyl)-1-(oxetan-2-ylmethyl)-1H-benzo[d]imidazole-6-carboxylic acid]
  EC50: 0.07 nM

## Cc1cc(Cc2nc3c(F)cc(C(=O)O)cc3n2[C@@H]2COCC2(C)C)c(F)cc1-c1ccc(F)c(OCc2ncc(C(F)(F)F)s2)n1 [Example 436, (S)-1-(4,4-dimethyltetrahydrofuran-3-yl)-4-fluoro-2-(2-fluoro-4-(5-fluoro-6-((5-(trifluoromethyl)thiazol-2-yl)methoxy)pyridin-2-yl)-5-methylbenzyl)-1H-benzo[d]imidazole-6-carboxylic acid]
  EC50: 0.367 nM

## O=C(O)c1ccc2nc(Cc3cc(F)c(-c4cccc(OCc5ccc(C(F)(F)F)s5)n4)cc3F)n(C[C@@H]3CCO3)c2c1 [Example 123, (S)-2-(2,5-difluoro-4-(6-((5-(trifluoromethyl)thiophen-2-yl)methoxy)pyridin-2-yl)benzyl)-1-(oxetan-2-ylmethyl)-1H-benzo[d]imidazole-6-carboxylic acid]
  EC50: 2.65 nM

## CCOc1nnc(COc2nc(-c3cc(F)c(Cc4nc5c(F)cc(C(=O)O)cc5n4[C@@H]4COCC4(C)C)cc3C)ccc2F)s1 [Example 422, (S)-1-(4,4-dimethyltetrahydrofuran-3-yl)-2-(4-(6-((5-ethoxy-1,3,4-thiadiazol-2-yl)methoxy)-5-fluoropyridin-2-yl)-2-fluoro-5-methylbenzyl)-4-fluoro-1H-benzo[d]imidazole-6-carboxylic acid]
  EC50: 0.066 nM

## O=C(O)c1ccc2nc(Cc3cc(F)c(-c4cccc(OCc5cncs5)n4)cc3F)n(C[C@@H]3CCO3)c2c1 [Example 167, (S)-2-(2,5-difluoro-4-(6-(thiazol-5-ylmethoxy)pyridin-2-yl)benzyl)-1-(oxetan-2-ylmethyl)-1H-benzo[d]imidazole-6-carboxylic acid]
  EC50: 0.87 nM

## CC(C)(O)C#Cc1cnc(COc2cccc(-c3cc(F)c(Cc4nc5ccc(C(=O)O)cc5n4C[C@@H]4CCO4)cc3F)n2)s1 [Example 334, (S)-2-(2,5-difluoro-4-(6-((5-(3-hydroxy-3-methylbut-1-yn-1-yl)thiazol-2-yl)methoxy)pyridin-2-yl)benzyl)-1-(oxetan-2-ylmethyl)-1H-benzo[d]imidazole-6-carboxylic acid]
  EC50: 0.354 nM

## NC(=O)c1ccc(COc2cccc(-c3cc(F)c(Cc4nc5ccc(C(=O)O)cc5n4C[C@@H]4CCO4)cc3F)n2)s1 [Example 127, (S)-2-(4-(6-((5-carbamoylthiophen-2-yl)methoxy)pyridin-2-yl)-2,5-difluorobenzyl)-1-(oxetan-2-ylmethyl)-1H-benzo[d]imidazole-6-carboxylic acid]
  EC50: 3.72 nM

## Cn1cc(C#Cc2cnc(COc3cccc(-c4cc(F)c(Cc5nc6ccc(C(=O)O)cc6n5C[C@@H]5CCO5)cc4F)n3)c(Cl)c2)cn1 [Example 302, (S)-2-(4-(6-((3-chloro-5-((1-methyl-1H-pyrazol-4-yl)ethynyl)pyridin-2-yl)methoxy)pyridin-2-yl)-2,5-difluorobenzyl)-1-(oxetan-2-ylmethyl)-1H-benzo[d]imidazole-6-carboxylic acid]
  EC50: 0.567 nM

## Cn1nccc1CNC(=O)c1cc(Cl)c(COc2cccc(-c3cc(F)c(Cc4nc5ccc(C(=O)O)cc5n4C[C@@H]4CCO4)cc3F)n2)cn1 [Example 195, (S)-2-(4-(6-((4-chloro-6-(((1-methyl-1H-pyrazol-5-yl)methyl)carbamoyl)pyridin-3-yl)methoxy)pyridin-2-yl)-2,5-difluorobenzyl)-1-(oxetan-2-ylmethyl)-1H-benzo[d]imidazole-6-carboxylic acid]
  EC50: 0.11 nM

## Cn1cc(C#Cc2cc(F)c(COc3cccc(-c4cc(F)c(Cc5nc6ccc(C(=O)O)cc6n5C[C@@H]5CCO5)cc4F)n3)cn2)cn1 [Example 144, (S)-2-(2,5-difluoro-4-(6-((4-fluoro-6-((1-methyl-1H-pyrazol-4-yl)ethynyl)pyridin-3-yl)methoxy)pyridin-2-yl)benzyl)-1-(oxetan-2-ylmethyl)-1H-benzo[d]imidazole-6-carboxylic acid]
  EC50: 0.99 nM

## COCCn1c(Cc2cc(F)c(-c3cccc(OCc4ccc(-c5cnn(C6CCNCC6)c5)nc4)n3)cc2F)nc2ccc(C(=O)O)cc21 [Example 229, 2-(2,5-difluoro-4-(6-((6-(1-(piperidin-4-yl)-1H-pyrazol-4-yl)pyridin-3-yl)methoxy)pyridin-2-yl)benzyl)-1-(2-methoxyethyl)-1H-benzo[d]imidazole-6-carboxylic acid]
  EC50: 17.9 nM

## N#Cc1ccc2nc(COc3cccc(-c4cc(F)c(Cc5nc6ccc(C(=O)O)cc6n5C[C@@H]5CCO5)cc4F)n3)cn2c1 [Example 31, (S)-2-(4-(6-((6-cyanoimidazo[1,2-a]pyridin-2-yl)methoxy)pyridin-2-yl)-2,5-difluorobenzyl)-1-(oxetan-2-ylmethyl)-1H-benzo[d]imidazole-6-carboxylic acid]
  EC50: 1.32 nM

## Cn1cc(C#Cc2cnc(COc3cccc(-c4cc(F)c(Cc5nc6c(F)cc(C(=O)O)cc6n5C[C@@H]5CCO5)cc4F)n3)s2)cn1 [Example 111, 2-[[2,5-difluoro-4-[6-[[5-[2-(1-methylpyrazol-4-yl)ethynyl]thiazol-2-yl]methoxy]-2-pyridyl]phenyl]methyl]-7-fluoro-3-[[(2S)-oxetan-2-yl]methyl]benzimidazole-5-carboxylic acid]
  EC50: 0.05 nM

## COc1nnc(COc2cccc(-c3cc(F)c(Cc4nc5ccc(C(=O)O)cc5n4[C@@H]4COCC4(C)C)c(F)c3F)n2)s1 [Example 273, (S)-1-(4,4-dimethyltetrahydrofuran-3-yl)-2-(2,3,6-trifluoro-4-(6-((5-methoxy-1,3,4-thiadiazol-2-yl)methoxy)pyridin-2-yl)benzyl)-1H-benzo[d]imidazole-6-carboxylic acid]
  EC50: 0.144 nM
